Measurements: US20250197374A1, “WEE1 DEGRADING COMPOUNDS AND USES THEREOF” (BRISTOL-MYERS SQUIBB COMPANY, priority 2023, published 2025)

What was measured:
Format in all cases: cell-based
[1] = test system: MKN45 cells; assay: MKN45 cell proliferation assay (Cell-Titer-Glo, 120 hr); details: for EC50: Homo sapiens, MKN-45, 120 h, read-out: MKN45 Cell Prolif. 120 hr EC50; for MKN45 Cell Prolif. 120 hr YMin (%): minimal percent of DMSO control observed
How it was run: (§1)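 Growth inhibition was read as CellTiter-Glo luminescence after 120 h at 37 °C in RPMI/10% FBS, with 400 MKN45 or 800 MDA-MB-231 cells seeded per well. Compounds were tested in 10-point half-log series starting at 1 or 10 uM (0.1% DMSO), in triplicate for MKN45 and duplicate for MDA-MB-231. EC50 values are four-parameter fits to %DMSO control, and Ymin-obs is the minimal observed %DMSO.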

[2] = target: T1, WEE1 (Homo sapiens, UniProt P30291+Q96SW2); assay: WEE1-ePL degradation assay (293T-LentiX, InCELL Hunter luminescence, 4 hr); details: for DC50: LentiX-HEK293T cells expressing WEE1-ePL, 4 hr incubation, read-out: 293T-LentiX WEE1-ePL Degradation 4 hr EC50; for 293T-LentiX WEE1-ePL Degradation 4 hr YMin (%): lower limit of fit, % of DMSO control signal remaining
T1 construct: C-terminal ePL-tagged (DiscoverX, Fremont, CA) full-length WEE1 expression construct; expressed in transfected cells; host or cells: LentiX-HEK293T (Invitrogen), lentivirally transduced; the cells also over-express GSPT1-GN
T1 sequence (P30291 whole entry): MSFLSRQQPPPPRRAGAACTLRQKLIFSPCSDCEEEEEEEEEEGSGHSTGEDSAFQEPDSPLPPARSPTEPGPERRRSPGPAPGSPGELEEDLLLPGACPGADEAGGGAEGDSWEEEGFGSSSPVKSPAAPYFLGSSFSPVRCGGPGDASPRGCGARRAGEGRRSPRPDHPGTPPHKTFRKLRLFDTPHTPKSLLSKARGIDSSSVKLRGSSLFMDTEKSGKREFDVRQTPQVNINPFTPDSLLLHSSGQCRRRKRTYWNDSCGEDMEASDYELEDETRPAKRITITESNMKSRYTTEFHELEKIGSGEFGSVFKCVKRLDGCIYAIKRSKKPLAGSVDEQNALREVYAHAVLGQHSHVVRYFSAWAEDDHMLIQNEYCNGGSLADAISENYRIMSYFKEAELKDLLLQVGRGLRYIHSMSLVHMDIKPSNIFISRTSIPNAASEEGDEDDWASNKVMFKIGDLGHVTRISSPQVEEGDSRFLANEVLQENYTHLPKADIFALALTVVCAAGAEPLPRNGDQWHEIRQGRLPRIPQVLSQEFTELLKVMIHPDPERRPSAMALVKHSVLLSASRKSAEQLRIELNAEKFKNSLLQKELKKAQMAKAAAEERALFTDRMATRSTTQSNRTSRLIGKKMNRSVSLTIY
T1 sequence (Q96SW2 whole entry): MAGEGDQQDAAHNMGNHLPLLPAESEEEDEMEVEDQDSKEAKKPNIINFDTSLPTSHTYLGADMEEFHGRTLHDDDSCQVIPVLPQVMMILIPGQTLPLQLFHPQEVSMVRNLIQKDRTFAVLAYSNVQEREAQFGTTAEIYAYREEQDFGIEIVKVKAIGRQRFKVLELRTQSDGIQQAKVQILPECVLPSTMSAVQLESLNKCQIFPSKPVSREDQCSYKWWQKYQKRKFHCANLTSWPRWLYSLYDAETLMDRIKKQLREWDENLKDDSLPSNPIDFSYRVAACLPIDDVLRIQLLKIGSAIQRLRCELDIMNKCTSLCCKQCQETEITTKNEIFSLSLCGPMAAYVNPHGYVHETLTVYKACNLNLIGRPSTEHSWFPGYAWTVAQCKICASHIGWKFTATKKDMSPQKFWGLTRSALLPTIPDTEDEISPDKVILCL
T1 sequence (Q16531 whole entry partner): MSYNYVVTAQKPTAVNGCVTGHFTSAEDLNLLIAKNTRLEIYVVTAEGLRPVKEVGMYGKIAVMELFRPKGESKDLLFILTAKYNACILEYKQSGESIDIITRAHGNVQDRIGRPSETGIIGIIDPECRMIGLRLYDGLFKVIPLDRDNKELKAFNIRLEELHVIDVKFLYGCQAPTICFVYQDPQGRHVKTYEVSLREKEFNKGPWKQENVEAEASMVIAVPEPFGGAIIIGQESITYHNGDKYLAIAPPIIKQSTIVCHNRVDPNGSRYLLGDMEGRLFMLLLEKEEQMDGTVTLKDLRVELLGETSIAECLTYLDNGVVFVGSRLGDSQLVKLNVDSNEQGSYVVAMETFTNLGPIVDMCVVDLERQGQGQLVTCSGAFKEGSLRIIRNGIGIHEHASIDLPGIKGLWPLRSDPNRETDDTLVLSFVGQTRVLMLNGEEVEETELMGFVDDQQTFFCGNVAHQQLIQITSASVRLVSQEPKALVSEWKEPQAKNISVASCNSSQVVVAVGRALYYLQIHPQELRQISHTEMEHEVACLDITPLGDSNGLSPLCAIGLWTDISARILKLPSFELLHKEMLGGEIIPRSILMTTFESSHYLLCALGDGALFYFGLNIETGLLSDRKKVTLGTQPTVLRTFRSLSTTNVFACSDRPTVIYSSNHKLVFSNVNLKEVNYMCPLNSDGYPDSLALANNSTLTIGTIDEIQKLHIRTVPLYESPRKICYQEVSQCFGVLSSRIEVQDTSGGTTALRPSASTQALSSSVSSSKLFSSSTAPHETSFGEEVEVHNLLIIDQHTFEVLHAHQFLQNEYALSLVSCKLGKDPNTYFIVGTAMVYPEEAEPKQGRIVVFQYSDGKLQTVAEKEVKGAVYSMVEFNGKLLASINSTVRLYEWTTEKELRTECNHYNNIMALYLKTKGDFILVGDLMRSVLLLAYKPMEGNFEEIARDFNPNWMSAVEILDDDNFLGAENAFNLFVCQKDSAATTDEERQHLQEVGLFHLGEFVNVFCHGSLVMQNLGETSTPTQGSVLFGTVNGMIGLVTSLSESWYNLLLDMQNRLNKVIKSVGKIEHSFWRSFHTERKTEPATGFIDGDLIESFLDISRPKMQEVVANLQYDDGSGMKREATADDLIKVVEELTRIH
How it was run: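 EC50 comes from a four-parameter logistic fit of ePL luminescence (InCELL Hunter), with DMSO control defining Ymax. Compounds ran as 10-point 3-fold dilutions from 1 or 10 µM for 4 h at 37 °C. Cells were HEK293T-LentiX with ePL-tagged full-length WEE1 and over-expressed Cereblon-resistant GSPT1-GN.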

[3] = test system: MDA-MB-231 cells; assay: MDA-MB-231 cell proliferation assay (Cell-Titer-Glo, 120 hr); details: for EC50: Homo sapiens, MDA-MB-231, 120 h, read-out: MDA-MB 231 Cell Prolif. 120 hr EC50; for MDA-MB 231 Cell Prolif. 120 hr YMin (%): minimal percent of DMSO control observed
How it was run: as §1

| Structure (SMILES) | EC50 [1] [nM] | DC50 [2] [nM] | 293T-LentiX WEE1-ePL Degradation 4 hr YMin (%) [2] [%] | EC50 [3] [nM] | MKN45 Cell Prolif. 120 hr YMin (%) [1] [%] | MDA-MB 231 Cell Prolif. 120 hr YMin (%) [3] [%] |
| --- | --- | --- | --- | --- | --- | --- |
| COC[C@@H]1CN(Cc2cc(F)c3nc(N4CCC45COC5)ccc3c2)C[C@H]1Oc1ccc2c(c1)CN([C@H]1CCC(=O)NC1=O)C2=O [Example 75, (3S)-3-(5-{[(3S,4S)-1-[(8-fluoro-2-{6-oxa-1-azaspiro [3.3]heptan-1-yl}quinolin-6-yl)methyl]-4-(methoxymethyl)pyrrolidin-3-yl]oxy}-1-oxo-2,3-dihydro-1H-isoindol-2-yl)piperidine-2,6-dione] | 1 | – | 31.2 | 11 | 10.1 | 56.6 |
| COC[C@@H]1CN(Cc2cc(F)c3nc(N4CCOC5(CC5)C4)ncc3c2)C[C@H]1Oc1ccc2c(c1)CN([C@H]1CCC(=O)NC1=O)C2=O [Example 79, (3S)-3-(5-{[(3S,4S)-1-[(8-fluoro-2-{4-oxa-7-azaspiro[2.5]octan-7-yl}quinazolin-6-yl)methyl]-4-(methoxymethyl)pyrrolidin-3-yl]oxy}-1-oxo-2,3-dihydro-1H-isoindol-2-yl)piperidine-2,6-dione] | 1 | 1 | 28.7 | 31 | 9.9 | 17.9 |
| COC[C@@H]1CN(Cc2cc(F)c3nc(N4CCOC5(COC5)C4)ncc3c2)C[C@H]1Oc1ccc2c(c1)CN([C@H]1CCC(=O)NC1=O)C2=O [Example 80, (3S)-3-(5-{[(3S,4S)-1-[(2-{2,5-dioxa-8-azaspiro[3.5]nonan-8-yl}-8-fluoroquinazolin-6-yl)methyl]-4-(methoxymethyl)pyrrolidin-3-yl]oxy}-1-oxo-2,3-dihydro-1H-isoindol-2-yl)piperidine-2,6-dione] | 2 | 2 | 29.7 | 42 | 10.3 | 23.5 |

Second part, led by results:

| EC50 [1] [nM] | DC50 [2] [nM] | 293T-LentiX WEE1-ePL Degradation 4 hr YMin (%) [2] [%] | EC50 [3] [nM] | Structure (SMILES) | MKN45 Cell Prolif. 120 hr YMin (%) [1] [%] | MDA-MB 231 Cell Prolif. 120 hr YMin (%) [3] [%] |
| --- | --- | --- | --- | --- | --- | --- |
| 3 | 2 | 31.4 | 15 | COC[C@@H]1CN(Cc2cc(F)c3nc(N4CCC45COC5)ncc3c2)C[C@H]1Oc1ccc2c(c1)CN([C@H]1CCC(=O)NC1=O)C2=O [Example 74, (3S)-3-(5-{[(3S,4S)-1-[(8-fluoro-2-{6-oxa-1-azaspiro[3.3]heptan-1-yl}quinazolin-6-yl)methyl]-4-(methoxymethyl)pyrrolidin-3-yl]oxy}-1-oxo-2,3-dihydro-1H-isoindol-2-yl)piperidine-2,6-dione] | 10.6 | 55.8 |
| 2 | 2 | 27.5 | 26 | COC[C@@H]1CN(Cc2ccc3nc(C4CCN(C(C)=O)C(C)(C)C4)ncc3c2)C[C@H]1Oc1ccc2c(c1)CN([C@H]1CCC(=O)NC1=O)C2=O (stereo partly drawn) [Example 82, (3S)-3-(5-{[(3S,4S)-1-{[2-(1-acetyl-2,2-dimethylpiperidin-4-yl)quinazolin-6-yl]methyl}-4-(methoxymethyl)pyrrolidin-3-yl]oxy}-1-oxo-2,3-dihydro-1H-isoindol-2-yl)piperidine-2,6-dione] | 9.0 | 17.9 |
| 109 | – | 81.6 | 1120 | COC[C@H]1CN(Cc2cc(F)c3nc(C4CCOCC4)ccc3c2)C[C@H]1Oc1ccc2c(c1)CN([C@H]1CCC(=O)NC1=O)C2=O [Example 83, (3S)-3-(5-{[(3S,4R)-1-{[8-fluoro-2-(oxan-4-yl)quinolin-6-yl]methyl}-4-(methoxymethyl)pyrrolidin-3-yl]oxy}-1-oxo-2,3-dihydro-1H-isoindol-2-yl)piperidine-2,6-dione] | 94.8 | 87.9 |
